This is an account of results in patent US8691864B2, “Agents useful for reducing amyloid precursor protein and treating dementia and methods of use thereof” (priority 2000, dated 2014).

This test has as its system APP. Briefly: rate of APP synthesis in SH-SY5Y cells (35S labelling, immunoprecipitation). The following applies: 10 μM, 16 hours. The class given is cell-based, human. The procedure:
8×10^6 SHSY-5Y cells were plated on 100 mm dishes with DMEM containing 10% FBS. After 36 hours, the culture medium was replaced with DMEM containing 0.5% FBS. The cells were incubated with low serum medium for 1 hour. Thereafter, the medium was replaced with fresh low serum medium with and without 10 μM of phenserine for 16 hours.
After treatment with methionine and cystine free medium, 2 ml of ^35S-labeled DMEM ([…]) with and without phenserine (10 μM) were added and incubated for 10 minutes. Thereafter, the labeled medium was carefully removed and the cells were suspended in lysis buffer containing with protease inhibitors and frozen at −80° C. for use in the immunoprecipitation assay.
APP protein was immunoprecipitated from 300 μig of total protein in each sample using the polyclonal antibody O443, which recognizes a 20 amino acid sequence in the carboxy terminal of APP, and protein A/G resin overnight at 4° C. Immunoprecipitated APP was eluted from the protein AJG resin with 30 μl of elution buffer (10% beta-mercaptoethanol). The samples were loaded onto 10% trys-glycine 10 gels, and the proteins were separated at 150 V for 90 min. The gels were fixed and dried at 80° C. for 60 min. The dried gels were exposed to Phosphor Screen (PACKARD Instrument Company, Inc., Meriden, Conn.) overnight and the βAPP signals were quantitated on a phosphor imager. […]

As for `CN1CC[C@@]2(C)c3cc(OC(=O)Nc4ccccc4)ccc3N(C)[C@@H]12` [(−)-phenserine], the “reduction of βAPP synthesis” value is given as 52%.
